From publication PMC4844702, “Selective inhibition of the kinase DYRK1A by targeting its folding process” (Nature Communications, 2016)

Assays:
Assay in all cases: Kinase panel (Carna)
Assay type in all cases: biochemical
MAP2K2_Cascade = molecular target: T1, MAP2K2_Cascade (Homo sapiens, UniProt P36507)
T1 construct: purchased Carna Biosciences

MELK = molecular target: T2, MELK (Homo sapiens, UniProt Q14680)
T2 construct: purchased Carna Biosciences
From the text: (§1) Detailed information on the assay conditions is available on the website of Carna Biosciences (http://www.carnabio.com).

MRCKα = molecular target: T3, MRCKα (Homo sapiens, UniProt Q5VT25)
T3 construct: purchased Carna Biosciences

MSSK1 = molecular target: T4, MSSK1 (Homo sapiens, UniProt Q9UPE1)
T4 construct: purchased Carna Biosciences
From the text: as §1

IKKα = molecular target: T5, IKKα (Homo sapiens, UniProt O15111)
T5 construct: purchased Carna Biosciences
From the text: as §1

RSK3 = molecular target: T6, RSK3 (Homo sapiens, UniProt Q15349)
T6 construct: purchased Carna Biosciences

EPHB4 = molecular target: T7, EPHB4 (Homo sapiens, UniProt P54760)
T7 construct: purchased Carna Biosciences
From the text: as §1

SPHK1 = molecular target: T8, SPHK1 (Homo sapiens, UniProt Q9NYA1)
T8 construct: purchased Carna Biosciences
From the text: as §1

FGFR1 = molecular target: T9, FGFR1 (Homo sapiens, UniProt P11362)
T9 construct: purchased Carna Biosciences

SGK = molecular target: T10, SGK (Homo sapiens, UniProt O00141)
T10 construct: purchased Carna Biosciences

MST4 = molecular target: T11, MST4 (Homo sapiens, UniProt Q9P289)
T11 construct: purchased Carna Biosciences
From the text: as §1

Erk5 = molecular target: T12, Erk5 (Homo sapiens, UniProt Q13164)
T12 construct: purchased Carna Biosciences

AKT3 = molecular target: T13, AKT3 (Homo sapiens, UniProt Q9Y243)
T13 construct: purchased Carna Biosciences
From the text: as §1

LYNb = molecular target: T14, LYNb (Homo sapiens, UniProt P07948)
T14 construct: purchased Carna Biosciences
From the text: as §1

IRAK4 = molecular target: T15, IRAK4 (Homo sapiens, UniProt Q9NWZ3)
T15 construct: purchased Carna Biosciences
From the text: as §1

NEK7 = molecular target: T16, NEK7 (Homo sapiens, UniProt Q8TDX7)
T16 construct: purchased Carna Biosciences

QIK = molecular target: T17, QIK (Homo sapiens, UniProt Q9H0K1)
T17 construct: purchased Carna Biosciences

MST3 = molecular target: T18, MST3 (Homo sapiens, UniProt Q9Y6E0)
T18 construct: purchased Carna Biosciences
From the text: as §1

TYRO3 = molecular target: T19, TYRO3 (Homo sapiens, UniProt Q06418)
T19 construct: purchased Carna Biosciences
From the text: as §1

IRR = molecular target: T20, IRR (Homo sapiens, UniProt P14616)
T20 construct: purchased Carna Biosciences
From the text: as §1

PKN1 = molecular target: T21, PKN1 (Homo sapiens, UniProt Q16512)
T21 construct: purchased Carna Biosciences

MAPKAPK2 = molecular target: T22, MAPKAPK2 (Homo sapiens, UniProt P49137)
T22 construct: purchased Carna Biosciences

CaMK2α = molecular target: T23, CaMK2α (Homo sapiens, UniProt Q9UQM7)
T23 construct: purchased Carna Biosciences
From the text: as §1

SLK = molecular target: T24, SLK (Homo sapiens, UniProt Q9H2G2)
T24 construct: purchased Carna Biosciences
From the text: as §1

FLT1 = molecular target: T25, FLT1 (Homo sapiens, UniProt P17948)
T25 construct: purchased Carna Biosciences
From the text: as §1

NuaK2 = molecular target: T26, NuaK2 (Homo sapiens, UniProt Q9H093)
T26 construct: purchased Carna Biosciences

MGC42105 = molecular target: T27, MGC42105 (Homo sapiens, UniProt Q8IY84)
T27 construct: purchased Carna Biosciences
From the text: as §1

PHKG1 = molecular target: T28, PHKG1 (Homo sapiens, UniProt Q16816)
T28 construct: purchased Carna Biosciences
From the text: as §1

MET = molecular target: T29, MET (Homo sapiens, UniProt P08581)
T29 construct: purchased Carna Biosciences
From the text: as §1

PAK2 = molecular target: T30, PAK2 (Homo sapiens, UniProt Q13177)
T30 construct: purchased Carna Biosciences
From the text: as §1

DLK_Cascade = molecular target: T31, DLK_Cascade (Homo sapiens, UniProt Q12852)
T31 construct: purchased Carna Biosciences
From the text: as §1

MAP3K4_Cascade = molecular target: T32, MAP3K4_Cascade (Homo sapiens, UniProt Q9Y6R4)
T32 construct: purchased Carna Biosciences
From the text: as §1

LTK = molecular target: T33, LTK (Homo sapiens, UniProt P29376)
T33 construct: purchased Carna Biosciences
From the text: as §1

MLK3_Cascade = molecular target: T34, MLK3_Cascade (Homo sapiens, UniProt Q16584)
T34 construct: purchased Carna Biosciences
From the text: as §1

MNK1 = molecular target: T35, MNK1 (Homo sapiens, UniProt Q9BUB5)
T35 construct: purchased Carna Biosciences

RSK1 = molecular target: T36, RSK1 (Homo sapiens, UniProt Q15418)
T36 construct: purchased Carna Biosciences

MLK1_Cascade = molecular target: T37, MLK1_Cascade (Homo sapiens, UniProt P80192)
T37 construct: purchased Carna Biosciences
From the text: as §1

NEK2 = molecular target: T38, NEK2 (Homo sapiens, UniProt P51955)
T38 construct: purchased Carna Biosciences

PIM2 = molecular target: T39, PIM2 (Homo sapiens, UniProt Q9P1W9)
T39 construct: purchased Carna Biosciences
From the text: as §1

HIPK4 = molecular target: T40, HIPK4 (Homo sapiens, UniProt Q8NE63)
T40 construct: purchased Carna Biosciences
From the text: as §1

CDK4/CycD3 = molecular target: T41, CDK4/CycD3 (Homo sapiens, UniProt P11802)
T41 construct: purchased Carna Biosciences
From the text: as §1

TSSK1 = molecular target: T42, TSSK1 (Homo sapiens, UniProt Q9BXA7)
T42 construct: purchased Carna Biosciences
From the text: as §1

TRKA = molecular target: T43, TRKA (Homo sapiens, UniProt P04629)
T43 construct: purchased Carna Biosciences
From the text: as §1

Erk1 = molecular target: T44, Erk1 (Homo sapiens, UniProt P27361)
T44 construct: purchased Carna Biosciences
From the text: as §1

MAPKAPK5 = molecular target: T45, MAPKAPK5 (Homo sapiens, UniProt Q8IW41)
T45 construct: purchased Carna Biosciences

T27 sequence (Q8IY84 whole entry): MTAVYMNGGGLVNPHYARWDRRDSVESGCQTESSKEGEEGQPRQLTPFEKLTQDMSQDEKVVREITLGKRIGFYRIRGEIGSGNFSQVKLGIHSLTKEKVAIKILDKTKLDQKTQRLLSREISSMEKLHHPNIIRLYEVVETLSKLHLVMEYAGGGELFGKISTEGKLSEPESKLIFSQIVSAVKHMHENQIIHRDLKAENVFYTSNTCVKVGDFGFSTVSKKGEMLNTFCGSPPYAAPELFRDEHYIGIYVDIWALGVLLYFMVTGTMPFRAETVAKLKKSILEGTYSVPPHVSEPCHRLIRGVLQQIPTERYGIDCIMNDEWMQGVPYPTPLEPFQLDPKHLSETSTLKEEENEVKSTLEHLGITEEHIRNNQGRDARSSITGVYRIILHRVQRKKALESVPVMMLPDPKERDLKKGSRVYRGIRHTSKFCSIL
T44 sequence (P27361 whole entry): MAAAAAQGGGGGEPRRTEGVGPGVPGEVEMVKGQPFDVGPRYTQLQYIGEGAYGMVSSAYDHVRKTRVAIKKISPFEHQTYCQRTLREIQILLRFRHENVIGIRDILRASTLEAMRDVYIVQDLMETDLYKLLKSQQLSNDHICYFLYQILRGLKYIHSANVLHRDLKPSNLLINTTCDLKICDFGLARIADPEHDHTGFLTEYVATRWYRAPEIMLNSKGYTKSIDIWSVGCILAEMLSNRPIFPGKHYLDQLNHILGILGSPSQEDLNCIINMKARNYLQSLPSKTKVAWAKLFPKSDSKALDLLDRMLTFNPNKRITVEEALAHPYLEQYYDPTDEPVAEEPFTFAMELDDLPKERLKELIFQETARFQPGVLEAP
T15 sequence (Q9NWZ3 whole entry): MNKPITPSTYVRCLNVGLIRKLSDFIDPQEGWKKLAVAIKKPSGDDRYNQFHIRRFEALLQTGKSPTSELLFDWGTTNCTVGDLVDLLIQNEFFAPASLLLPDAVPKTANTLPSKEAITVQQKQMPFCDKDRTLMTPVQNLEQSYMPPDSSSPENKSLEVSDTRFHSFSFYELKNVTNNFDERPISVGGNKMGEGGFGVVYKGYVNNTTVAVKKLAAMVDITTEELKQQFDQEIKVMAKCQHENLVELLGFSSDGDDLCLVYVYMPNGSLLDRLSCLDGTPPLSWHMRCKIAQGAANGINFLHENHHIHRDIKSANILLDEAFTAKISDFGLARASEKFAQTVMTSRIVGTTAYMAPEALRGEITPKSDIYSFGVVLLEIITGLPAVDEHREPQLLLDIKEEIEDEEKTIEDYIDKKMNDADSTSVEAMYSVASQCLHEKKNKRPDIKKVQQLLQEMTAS
T10 sequence (O00141 whole entry): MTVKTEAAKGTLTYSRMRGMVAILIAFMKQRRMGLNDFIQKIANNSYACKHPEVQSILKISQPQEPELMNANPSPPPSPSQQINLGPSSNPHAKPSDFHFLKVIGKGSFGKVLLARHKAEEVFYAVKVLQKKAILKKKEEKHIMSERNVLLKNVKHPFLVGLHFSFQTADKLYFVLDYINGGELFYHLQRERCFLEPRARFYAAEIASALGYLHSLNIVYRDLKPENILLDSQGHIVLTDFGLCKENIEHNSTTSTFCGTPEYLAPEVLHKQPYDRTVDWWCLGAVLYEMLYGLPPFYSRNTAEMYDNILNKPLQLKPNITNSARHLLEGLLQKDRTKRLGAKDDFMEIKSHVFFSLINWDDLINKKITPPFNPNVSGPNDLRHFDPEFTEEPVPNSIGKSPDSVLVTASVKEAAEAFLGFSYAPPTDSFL
T23 sequence (Q9UQM7 whole entry): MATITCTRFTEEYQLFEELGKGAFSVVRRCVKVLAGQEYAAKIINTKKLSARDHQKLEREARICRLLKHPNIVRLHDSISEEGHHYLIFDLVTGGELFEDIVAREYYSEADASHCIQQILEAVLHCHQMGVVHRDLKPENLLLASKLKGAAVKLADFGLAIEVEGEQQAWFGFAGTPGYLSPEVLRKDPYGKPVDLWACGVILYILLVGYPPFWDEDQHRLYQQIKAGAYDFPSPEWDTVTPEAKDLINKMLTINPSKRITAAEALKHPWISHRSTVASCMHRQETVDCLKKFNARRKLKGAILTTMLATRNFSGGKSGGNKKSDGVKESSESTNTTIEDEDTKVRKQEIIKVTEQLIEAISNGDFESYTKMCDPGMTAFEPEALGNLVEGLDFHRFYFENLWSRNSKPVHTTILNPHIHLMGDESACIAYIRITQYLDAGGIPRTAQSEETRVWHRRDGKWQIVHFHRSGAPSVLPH
T32 sequence (Q9Y6R4 whole entry): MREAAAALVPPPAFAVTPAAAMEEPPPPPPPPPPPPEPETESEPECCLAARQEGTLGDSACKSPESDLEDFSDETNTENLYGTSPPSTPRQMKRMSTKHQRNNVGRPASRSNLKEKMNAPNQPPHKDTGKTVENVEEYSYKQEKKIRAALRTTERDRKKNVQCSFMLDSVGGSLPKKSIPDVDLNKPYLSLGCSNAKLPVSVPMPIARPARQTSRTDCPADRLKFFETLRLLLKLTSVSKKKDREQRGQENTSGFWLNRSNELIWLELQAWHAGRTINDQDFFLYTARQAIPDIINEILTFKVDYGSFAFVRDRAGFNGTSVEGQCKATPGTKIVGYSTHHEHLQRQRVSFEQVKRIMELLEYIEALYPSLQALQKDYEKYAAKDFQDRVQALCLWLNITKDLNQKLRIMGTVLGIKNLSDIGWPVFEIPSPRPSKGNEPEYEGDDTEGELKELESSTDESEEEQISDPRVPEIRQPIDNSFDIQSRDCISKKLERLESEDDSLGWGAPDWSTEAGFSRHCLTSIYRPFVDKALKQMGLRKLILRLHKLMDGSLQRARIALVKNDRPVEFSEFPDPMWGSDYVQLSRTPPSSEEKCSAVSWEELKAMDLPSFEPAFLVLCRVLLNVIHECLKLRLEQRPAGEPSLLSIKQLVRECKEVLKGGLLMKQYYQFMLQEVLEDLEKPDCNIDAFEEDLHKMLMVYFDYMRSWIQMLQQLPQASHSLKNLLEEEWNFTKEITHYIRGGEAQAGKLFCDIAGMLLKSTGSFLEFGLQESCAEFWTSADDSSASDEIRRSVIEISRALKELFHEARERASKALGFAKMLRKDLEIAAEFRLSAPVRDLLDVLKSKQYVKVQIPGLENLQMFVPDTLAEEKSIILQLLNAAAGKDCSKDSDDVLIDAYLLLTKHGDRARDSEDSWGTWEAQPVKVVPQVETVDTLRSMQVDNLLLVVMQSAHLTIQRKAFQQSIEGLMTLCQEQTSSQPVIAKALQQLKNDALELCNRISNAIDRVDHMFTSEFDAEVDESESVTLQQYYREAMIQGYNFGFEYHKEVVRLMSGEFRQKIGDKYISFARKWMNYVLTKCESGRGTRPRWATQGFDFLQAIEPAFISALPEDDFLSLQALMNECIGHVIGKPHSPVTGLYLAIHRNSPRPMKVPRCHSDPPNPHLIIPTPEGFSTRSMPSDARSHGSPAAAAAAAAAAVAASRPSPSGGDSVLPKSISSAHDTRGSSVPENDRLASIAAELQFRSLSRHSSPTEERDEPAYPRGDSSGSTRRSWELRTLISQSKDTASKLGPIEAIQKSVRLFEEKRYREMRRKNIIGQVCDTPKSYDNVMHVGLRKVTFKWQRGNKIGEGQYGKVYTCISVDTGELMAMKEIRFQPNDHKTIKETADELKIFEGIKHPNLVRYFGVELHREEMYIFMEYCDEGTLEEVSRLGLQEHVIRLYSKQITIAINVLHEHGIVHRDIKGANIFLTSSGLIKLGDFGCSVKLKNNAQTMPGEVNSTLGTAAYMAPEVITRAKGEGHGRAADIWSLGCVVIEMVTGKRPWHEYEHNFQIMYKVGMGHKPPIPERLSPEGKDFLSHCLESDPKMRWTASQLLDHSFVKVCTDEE
T2 sequence (Q14680 whole entry): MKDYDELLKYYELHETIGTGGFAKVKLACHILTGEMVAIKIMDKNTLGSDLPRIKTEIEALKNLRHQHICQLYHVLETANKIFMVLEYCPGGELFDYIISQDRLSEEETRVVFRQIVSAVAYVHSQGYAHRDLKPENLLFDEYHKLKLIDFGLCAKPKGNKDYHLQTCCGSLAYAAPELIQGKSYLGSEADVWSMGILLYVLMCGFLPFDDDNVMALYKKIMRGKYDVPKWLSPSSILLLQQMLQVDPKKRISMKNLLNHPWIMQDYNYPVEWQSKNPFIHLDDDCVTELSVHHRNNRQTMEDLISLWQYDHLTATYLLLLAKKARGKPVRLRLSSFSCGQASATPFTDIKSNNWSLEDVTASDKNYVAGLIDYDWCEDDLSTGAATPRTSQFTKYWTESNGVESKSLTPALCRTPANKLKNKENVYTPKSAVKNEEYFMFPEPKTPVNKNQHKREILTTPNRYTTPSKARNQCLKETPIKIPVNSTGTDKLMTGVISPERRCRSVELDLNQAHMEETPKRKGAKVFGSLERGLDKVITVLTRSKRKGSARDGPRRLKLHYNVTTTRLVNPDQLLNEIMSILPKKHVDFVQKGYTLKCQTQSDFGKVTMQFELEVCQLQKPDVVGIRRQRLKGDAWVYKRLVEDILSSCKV
T22 sequence (P49137 whole entry): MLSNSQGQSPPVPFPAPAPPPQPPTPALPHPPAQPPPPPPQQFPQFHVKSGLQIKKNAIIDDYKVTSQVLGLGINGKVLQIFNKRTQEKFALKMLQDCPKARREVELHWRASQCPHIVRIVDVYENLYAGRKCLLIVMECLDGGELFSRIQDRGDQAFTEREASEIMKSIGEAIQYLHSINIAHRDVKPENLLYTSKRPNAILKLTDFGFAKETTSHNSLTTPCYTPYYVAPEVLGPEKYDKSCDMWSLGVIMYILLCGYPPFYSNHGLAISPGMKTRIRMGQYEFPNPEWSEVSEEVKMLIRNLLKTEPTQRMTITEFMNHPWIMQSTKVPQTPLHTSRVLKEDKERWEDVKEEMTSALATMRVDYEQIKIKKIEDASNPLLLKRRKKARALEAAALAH

With `COc1ccc(/C=C2\SC(=S)NC2=O)cc1C#C[Si](C)(C)C` [FINDY] the inhibition at 10 µM (MAP2K2_Cascade) was 38.8%, the inhibition at 10 µM (MELK) was 20.6% and the inhibition at 10 µM (MRCKα) was 2.7%. For the same molecule, the inhibition at 10 µM (MSSK1) was 6.6%, the inhibition at 10 µM (IKKα) was 4.9% and the inhibition at 10 µM (RSK3) was 28%. It also gave an inhibition at 10 µM (EPHB4) of 20.5%, an inhibition at 10 µM (SPHK1) of 51.2% and an inhibition at 10 µM (FGFR1) of 37%. It also gave an inhibition at 10 µM (SGK) of 27.8%, an inhibition at 10 µM (MST4) of 16.7% and an inhibition at 10 µM (Erk5) of -4%. For the same molecule, the inhibition at 10 µM (AKT3) was 18.9%, the inhibition at 10 µM (LYNb) was 11.4% and the inhibition at 10 µM (IRAK4) was -0.8%. The inhibition at 10 µM (NEK7) was -12.3%, the inhibition at 10 µM (QIK) was -7.7% and the inhibition at 10 µM (MST3) was 6.4%. It also gave an inhibition at 10 µM (TYRO3) of 2.9%, an inhibition at 10 µM (IRR) of 3% and an inhibition at 10 µM (PKN1) of -0.9%. The inhibition at 10 µM (MAPKAPK2) was 51.9%, the inhibition at 10 µM (CaMK2α) was -6.9% and the inhibition at 10 µM (SLK) was -35%. It also gave an inhibition at 10 µM (FLT1) of 6.6%, an inhibition at 10 µM (NuaK2) of -9.3% and an inhibition at 10 µM (MGC42105) of 12.5%. For the same molecule, the inhibition at 10 µM (PHKG1) was 8.9%, the inhibition at 10 µM (MET) was 12.4% and the inhibition at 10 µM (PAK2) was -2.5%. For the same molecule, the inhibition at 10 µM (DLK_Cascade) was 23.5%, the inhibition at 10 µM (MAP3K4_Cascade) was 39.8% and the inhibition at 10 µM (LTK) was 4.6%. It also gave an inhibition at 10 µM (MLK3_Cascade) of 40.5%, an inhibition at 10 µM (MNK1) of 6.2% and an inhibition at 10 µM (RSK1) of 39.8%. For the same molecule, the inhibition at 10 µM (MLK1_Cascade) was 48.7%, the inhibition at 10 µM (NEK2) was -5.1% and the inhibition at 10 µM (PIM2) was 67.4%. It also gave an inhibition at 10 µM (HIPK4) of 16.6%, an inhibition at 10 µM (CDK4/CycD3) of 8% and an inhibition at 10 µM (TSSK1) of 3.3%. It also gave an inhibition at 10 µM (TRKA) of -0.6%, an inhibition at 10 µM (Erk1) of 33.8% and an inhibition at 10 µM (MAPKAPK5) of 5.2%.
